Key:
Assay type in all cases: in vivo
[1] = system: pigweed (Amaranthus retroflexus); assay: Test A preemergence, pigweed; details: 0 to 100 scale (0 no effect, 100 complete control)
Method in brief: (§1)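 Visual injury scored 0 (no effect) to 100 (complete control) against untreated plants roughly ten days after greenhouse treatment. Postemergence sprays hit one- to two-leaf plants 2–10 cm high; preemergence was a directed spray onto loam–sand soil, both using surfactant-containing solvent formulations.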

corn (Zea mays) [2] = assay: Test A preemergence, corn; details: 0 to 100 scale (0 no effect, 100 complete control)
Method in brief: as §1

[3] = system: morningglory (Ipomoea spp.); assay: Test A postemergence, morningglory; details: 0 to 100 scale (0 no effect, 100 complete control)
Method in brief: as §1

[4] = system: velvetleaf (Abutilon theophrasti); assay: Test A postemergence, velvetleaf; details: 0 to 100 scale (0 no effect, 100 complete control)
Method in brief: as §1

[5] = system: barnyardgrass (Echinochloa crus-galli); assay: Test A preemergence, barnyardgrass; details: 0 to 100 scale (0 no effect, 100 complete control)
Method in brief: as §1

[6] = system: wheat (Triticum aestivum); assay: Test A preemergence, wheat; details: 0 to 100 scale (0 no effect, 100 complete control)
Method in brief: as §1

[7] = system: ducksalad (Heteranthera limosa); assay: Test B flooded paddy test, ducksalad; details: Flood, scale 0 to 100
Method in brief: (§2)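 Step one: raise plants to 2 leaves. Step two: flood pots 3 cm over the soil and apply compound into the water, keeping this depth. Step three: after 13–15 greenhouse days, score visually versus controls, 0–100, where 100 means complete control.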

[8] = system: giant foxtail (Setaria faberi); assay: Test A preemergence, giant foxtail; details: 0 to 100 scale (0 no effect, 100 complete control)
Method in brief: as §1

rice (Oryza sativa) = assay: Test B flooded paddy test, rice; details: Flood, scale 0 to 100
Method in brief: as §2

corn (Zea mays) [9] = assay: Test A postemergence, corn; details: 0 to 100 scale (0 no effect, 100 complete control)
Method in brief: as §1

[10] = system: velvetleaf (Abutilon theophrasti); assay: Test A preemergence, velvetleaf; details: 0 to 100 scale (0 no effect, 100 complete control)
Method in brief: as §1

[11] = system: umbrella sedge (Cyperus difformis); assay: Test B flooded paddy test, umbrella sedge; details: Flood, scale 0 to 100
Method in brief: as §2

[12] = system: barnyardgrass (Echinochloa crus-galli); assay: Test A postemergence, barnyardgrass; details: 0 to 100 scale (0 no effect, 100 complete control)
Method in brief: as §1

[13] = system: morningglory (Ipomoea spp.); assay: Test A preemergence, morningglory; details: 0 to 100 scale (0 no effect, 100 complete control)
Method in brief: as §1

[14] = system: large crabgrass (Digitaria sanguinalis); assay: Test A preemergence, large crabgrass; details: 0 to 100 scale (0 no effect, 100 complete control)
Method in brief: as §1

[15] = system: wheat (Triticum aestivum); assay: Test A postemergence, wheat; details: 0 to 100 scale (0 no effect, 100 complete control)
Method in brief: as §1

[16] = system: large crabgrass (Digitaria sanguinalis); assay: Test A postemergence, large crabgrass; details: 0 to 100 scale (0 no effect, 100 complete control)
Method in brief: as §1

[17] = system: giant foxtail (Setaria faberi); assay: Test A postemergence, giant foxtail; details: 0 to 100 scale (0 no effect, 100 complete control)
Method in brief: as §1

[18] = system: barnyardgrass (Echinochloa crus-galli); assay: Test B flooded paddy test, barnyardgrass; details: Flood
Method in brief: as §2

[19] = system: pigweed (Amaranthus retroflexus); assay: Test A postemergence, pigweed; details: 0 to 100 scale (0 no effect, 100 complete control)
Method in brief: as §1

[20] = 250 g ai/ha, scale 0 to 100 (0 no effect, 100 complete control)

CC1(C)CC([S+]([O-])Cc2c(C(F)(F)F)nc3n(c2=O)CCCCC3)=NO1 (stereo not drawn) [Compound 34]
Plant response rating, Pigweed ([1]; 125 g ai/ha): 0 | Plant response rating, Pigweed ([1]; 500 g ai/ha): 0 | Plant response rating, Corn (corn (Zea mays) [2]; 125 g ai/ha): 0 | Plant response rating, Corn (corn (Zea mays) [2]; 500 g ai/ha): 0 | Plant response rating, Morningglory ([3]; 125 g ai/ha): 30 | Plant response rating, Morningglory ([3]; 500 g ai/ha): 40 | Plant response rating, Velvetleaf ([4]; 125 g ai/ha): 0 | Plant response rating, Velvetleaf ([4]; 500 g ai/ha): 0 | Plant response rating, Barnyardgrass ([5]; 125 g ai/ha): 0 | Plant response rating, Barnyardgrass ([5]; 500 g ai/ha): 70 | Plant response rating, Wheat ([6]; 125 g ai/ha): 0 | Plant response rating, Wheat ([6]; 500 g ai/ha): 50 | Plant response rating, Ducksalad ([7]; 31 g ai/ha): 0 | Plant response rating, Ducksalad ([7]; 62 g ai/ha): 0 | Plant response rating, Ducksalad ([7]; 125 g ai/ha): 0 | Plant response rating, Ducksalad ([7]; 250 g ai/ha): 0 | Plant response rating, Foxtail, Giant ([8]; 125 g ai/ha): 0 | Plant response rating, Foxtail, Giant ([8]; 500 g ai/ha): 90 | Plant response rating, Rice (rice (Oryza sativa); 31 g ai/ha): 0 | Plant response rating, Rice (rice (Oryza sativa); 62 g ai/ha): 0 | Plant response rating, Rice (rice (Oryza sativa); 125 g ai/ha): 0 | Plant response rating, Rice (rice (Oryza sativa); 250 g ai/ha): 0 | Plant response rating, Corn (corn (Zea mays) [9]; 125 g ai/ha): 0 | Plant response rating, Corn (corn (Zea mays) [9]; 500 g ai/ha): 0 | Plant response rating, Velvetleaf ([10]; 125 g ai/ha): 0 | Plant response rating, Velvetleaf ([10]; 500 g ai/ha): 0 | Plant response rating, Sedge, Umbrella ([11]; 31 g ai/ha): 0 | Plant response rating, Sedge, Umbrella ([11]; 62 g ai/ha): 0 | Plant response rating, Sedge, Umbrella ([11]; 125 g ai/ha): 0 | Plant response rating, Sedge, Umbrella ([11]; 250 g ai/ha): 0 | Plant response rating, Barnyardgrass ([12]; 125 g ai/ha): 0 | Plant response rating, Barnyardgrass ([12]; 500 g ai/ha): 50 | Plant response rating, Morningglory ([13]; 125 g ai/ha): 0 | Plant response rating, Morningglory ([13]; 500 g ai/ha): 0 | Plant response rating, Crabgrass, Large ([14]; 125 g ai/ha): 0 | Plant response rating, Crabgrass, Large ([14]; 500 g ai/ha): 80 | Plant response rating, Wheat ([15]; 125 g ai/ha): 0 | Plant response rating, Wheat ([15]; 500 g ai/ha): 20 | Plant response rating, Crabgrass, Large ([16]; 125 g ai/ha): 0 | Plant response rating, Crabgrass, Large ([16]; 500 g ai/ha): 40 | Plant response rating, Foxtail, Giant ([17]; 125 g ai/ha): 0 | Plant response rating, Foxtail, Giant ([17]; 500 g ai/ha): 60 | Plant response rating, Barnyardgrass ([18]; 31 g ai/ha, scale 0 to 100): 0 | Plant response rating, Barnyardgrass ([18]; 62 g ai/ha, scale 0 to 100): 0 | Plant response rating, Barnyardgrass ([18]; 125 g ai/ha, scale 0 to 100): 0 | Plant response rating, Barnyardgrass [18, 20]: 0 | Plant response rating, Pigweed ([19]; 125 g ai/ha): 0 | Plant response rating, Pigweed ([19]; 500 g ai/ha): 0

Cn1c(=O)c(CS(=O)(=O)C2=NOC(C)(C)C2)nc2ccccc21 [Compound 23]
Plant response rating, Pigweed ([1]; 125 g ai/ha): 0 | Plant response rating, Pigweed ([1]; 500 g ai/ha): 10 | Plant response rating, Corn (corn (Zea mays) [2]; 125 g ai/ha): 0 | Plant response rating, Corn (corn (Zea mays) [2]; 500 g ai/ha): 0 | Plant response rating, Morningglory ([3]; 125 g ai/ha): 0 | Plant response rating, Morningglory ([3]; 500 g ai/ha): 0 | Plant response rating, Velvetleaf ([4]; 125 g ai/ha): 0 | Plant response rating, Velvetleaf ([4]; 500 g ai/ha): 0 | Plant response rating, Barnyardgrass ([5]; 125 g ai/ha): 20 | Plant response rating, Barnyardgrass ([5]; 500 g ai/ha): 40 | Plant response rating, Wheat ([6]; 125 g ai/ha): 0 | Plant response rating, Wheat ([6]; 500 g ai/ha): 0 | Plant response rating, Ducksalad ([7]; 62 g ai/ha): 0 | Plant response rating, Ducksalad ([7]; 250 g ai/ha): 0 | Plant response rating, Foxtail, Giant ([8]; 125 g ai/ha): 30 | Plant response rating, Foxtail, Giant ([8]; 500 g ai/ha): 80 | Plant response rating, Rice (rice (Oryza sativa); 62 g ai/ha): 0 | Plant response rating, Rice (rice (Oryza sativa); 250 g ai/ha): 0 | Plant response rating, Corn (corn (Zea mays) [9]; 125 g ai/ha): 0 | Plant response rating, Corn (corn (Zea mays) [9]; 500 g ai/ha): 0 | Plant response rating, Velvetleaf ([10]; 125 g ai/ha): 0 | Plant response rating, Velvetleaf ([10]; 500 g ai/ha): 0 | Plant response rating, Sedge, Umbrella ([11]; 62 g ai/ha): 0 | Plant response rating, Sedge, Umbrella ([11]; 250 g ai/ha): 0 | Plant response rating, Barnyardgrass ([12]; 125 g ai/ha): 40 | Plant response rating, Barnyardgrass ([12]; 500 g ai/ha): 60 | Plant response rating, Morningglory ([13]; 125 g ai/ha): 0 | Plant response rating, Crabgrass, Large ([14]; 125 g ai/ha): 10 | Plant response rating, Crabgrass, Large ([14]; 500 g ai/ha): 70 | Plant response rating, Wheat ([15]; 125 g ai/ha): 0 | Plant response rating, Wheat ([15]; 500 g ai/ha): 0 | Plant response rating, Crabgrass, Large ([16]; 125 g ai/ha): 30 | Plant response rating, Crabgrass, Large ([16]; 500 g ai/ha): 60 | Plant response rating, Foxtail, Giant ([17]; 125 g ai/ha): 10 | Plant response rating, Foxtail, Giant ([17]; 500 g ai/ha): 60 | Plant response rating, Barnyardgrass ([18]; 62 g ai/ha, scale 0 to 100): 0 | Plant response rating, Barnyardgrass [18, 20]: 0 | Plant response rating, Pigweed ([19]; 125 g ai/ha): 0 | Plant response rating, Pigweed ([19]; 500 g ai/ha): 0

— patent US20100099561A1, “HETEROBICYCLIC ALKYLTHIO-BRIDGED ISOXAZOLINES” (E.I. DU PONT DE NEMOURS AND COMPANY, priority 2008, published 2010)
